System: MV-4-11 cells
Assay: Gene expression microarray analysis (Affymetrix PrimeView) and GSEA
Format: cell-based, human
Set-up: RFU PODN (11730768_x_at) / Fold change /veh PODN (11730768_x_at) / RFU LINC00158 (11744669_a_at) / Fold change /veh LINC00158 (11744669_a_at) / RFU DUSP10 (11751237_a_at) / Fold change /veh DUSP10 (11751237_a_at) / RFU ID3 (11757404_x_at) / Fold change /veh ID3 (11757404_x_at) / RFU PLEKHG5 (11737974_s_at) / Fold change /veh PLEKHG5 (11737974_s_at) / RFU LRRC4B (11730491_at) / Fold change /veh LRRC4B (11730491_at) / RFU GIMAP4 (11747438_a_at) / Fold change /veh GIMAP4 (11747438_a_at) / RFU KRT8 (11758183_x_at) / Fold change /veh KRT8 (11758183_x_at) / RFU CNN1 (11734310_a_at) / Fold change /veh CNN1 (11734310_a_at) / RFU VPS37D (11726825_at) / Fold change /veh VPS37D (11726825_at) / RFU C10orf10 (11716522_x_at) / Fold change /veh C10orf10 (11716522_x_at) / RFU KIR2DL2 /// KIR2DL4 /// KIR2DL5A /// KIR2DL5B /// KIR2DS1 /// KIR2DS2 /// KIR2DS3 /// KIR2DS4 /// KIR3DL3 /// KIR3DL3 /// KIR3DS1 (11738374_at) / Fold change /veh KIR2DL2 /// KIR2DL4 /// KIR2DL5A /// KIR2DL5B /// KIR2DS1 /// KIR2DS2 /// KIR2DS3 /// KIR2DS4 /// KIR3DL3 /// KIR3DL3 /// KIR3DS1 (11738374_at) / RFU C1QL1 (11718748_at) / Fold change /veh C1QL1 (11718748_at) / RFU TMPRSS4 (11747572_a_at) / Fold change /veh TMPRSS4 (11747572_a_at) / RFU HAMP (11756126_x_at) / Fold change /veh HAMP (11756126_x_at) / RFU RNFT2 (11725882_a_at) / Fold change /veh RNFT2 (11725882_a_at) / RFU NR4A2 (11747474_a_at) / Fold change /veh NR4A2 (11747474_a_at) / RFU ABCC12 (11746883_a_at) / Fold change /veh ABCC12 (11746883_a_at) / RFU TMEM136 (11760407_x_at) / Fold change /veh TMEM136 (11760407_x_at) / RFU CLDN22 /// WWC2 (11732394_at) / Fold change /veh CLDN22 /// WWC2 (11732394_at) / RFU HLA-DPB1 (11760878_x_at) / Fold change /veh HLA-DPB1 (11760878_x_at) / RFU SPINT1 (11716480_a_at) / Fold change /veh SPINT1 (11716480_a_at) / RFU GAP43 (11754022_s_at) / Fold change /veh GAP43 (11754022_s_at) / RFU A4GNT (11735810_at) / Fold change /veh A4GNT (11735810_at) / RFU PRB3 (11715151_x_at) / Fold change /veh PRB3 (11715151_x_at) / RFU TUBB4B (11761932_at) / Fold change /veh TUBB4B (11761932_at) / RFU CAPN14 (11732068_a_at) / Fold change /veh CAPN14 (11732068_a_at) / RFU TMCC2 (11721928_a_at) / Fold change /veh TMCC2 (11721928_a_at) / RFU IRGQ (11745062_a_at) / Fold change /veh IRGQ (11745062_a_at) / RFU FAM174B (11720279_a_at) / Fold change /veh FAM174B (11720279_a_at) / RFU TMPRSS4 (11748680_a_at) / Fold change /veh TMPRSS4 (11748680_a_at) / RFU FAM212B (11763350_a_at) / Fold change /veh FAM212B (11763350_a_at) / RFU PLEKHG5 (11743358_a_at) / Fold change /veh PLEKHG5 (11743358_a_at) / RFU ZSCAN30 (11745921_a_at) / Fold change /veh ZSCAN30 (11745921_a_at) / RFU CMKLR1 (11741424_a_at) / Fold change /veh CMKLR1 (11741424_a_at) / RFU LOC101060620 /// MAPK8IP1 (11723275_at) / Fold change /veh LOC101060620 /// MAPK8IP1 (11723275_at) / RFU SPTSSB (11747773_x_at) / Fold change /veh SPTSSB (11747773_x_at) / RFU PRSS12 (11739890_at) / Fold change /veh PRSS12 (11739890_at) / RFU BIN1 (11741810_x_at) / Fold change /veh BIN1 (11741810_x_at) / RFU WNT11 (11732464_a_at) / Fold change /veh WNT11 (11732464_a_at) / RFU C10orf10 (11716521_a_at) / Fold change /veh C10orf10 (11716521_a_at) / RFU C5orf56 (11738089_at) / Fold change /veh C5orf56 (11738089_at) / RFU CYB561 (11721691_x_at) / Fold change /veh CYB561 (11721691_x_at) / RFU ANKRD19P (11752326_a_at) / Fold change /veh ANKRD19P (11752326_a_at) / RFU OR2T12 /// OR2T33 /// OR2T8 (11738714_s_at) / Fold change /veh OR2T12 /// OR2T33 /// OR2T8 (11738714_s_at) / RFU VCAN (11748164_a_at) / Fold change /veh VCAN (11748164_a_at) / RFU JSRP1 (11732532_at) / Fold change /veh JSRP1 (11732532_at) / RFU KRTAP10-11 (11738290_x_at) / Fold change /veh KRTAP10-11 (11738290_x_at) / RFU MYO3A (11730013_a_at) / Fold change /veh MYO3A (11730013_a_at) / RFU EBF3 (11725865_a_at) / Fold change /veh EBF3 (11725865_a_at) / RFU CAMK2N1 (11719241_x_at) / Fold change /veh CAMK2N1 (11719241_x_at) / RFU C5orf56 (11738088_a_at) / Fold change /veh C5orf56 (11738088_a_at) / RFU OLFML3 (11715873_a_at) / Fold change /veh OLFML3 (11715873_a_at) / RFU LOC100653217 /// NTM (11731650_a_at) / Fold change /veh LOC100653217 /// NTM (11731650_a_at) / RFU MAPK11 (11762145_a_at) / Fold change /veh MAPK11 (11762145_a_at) / RFU FIZ1 (11724087_x_at) / Fold change /veh FIZ1 (11724087_x_at) / RFU OASL (11726364_x_at) / Fold change /veh OASL (11726364_x_at) / RFU SOX15 (11748057_x_at) / Fold change /veh SOX15 (11748057_x_at) / RFU CD79A (11719716_a_at) / Fold change /veh CD79A (11719716_a_at) / RFU HIST1H1D (11736915_at) / Fold change /veh HIST1H1D (11736915_at) / RFU CASKIN2 (11723855_a_at) / Fold change /veh CASKIN2 (11723855_a_at) / RFU LOC730098 (11760151_x_at) / Fold change /veh LOC730098 (11760151_x_at) / RFU OR4N2 (11742367_at) / Fold change /veh OR4N2 (11742367_at) / RFU PRRT2 (11749266_a_at) / Fold change /veh PRRT2 (11749266_a_at) / RFU SNX32 (11753110_a_at) / Fold change /veh SNX32 (11753110_a_at) / RFU CDHR5 (11726645_a_at) / Fold change /veh CDHR5 (11726645_a_at) / RFU RCAN1 (11760418_a_at) / Fold change /veh RCAN1 (11760418_a_at) / RFU FAM167A (11723789_a_at) / Fold change /veh FAM167A (11723789_a_at) / RFU FAM26E (11764081_at) / Fold change /veh FAM26E (11764081_at) / RFU ISYNA1 (11749810_s_at) / Fold change /veh ISYNA1 (11749810_s_at) / RFU ACY1 (11761880_at) / Fold change /veh ACY1 (11761880_at) / RFU 11764098_at / Fold change /veh 11764098_at / RFU SAMD14 (11745864_x_at) / Fold change /veh SAMD14 (11745864_x_at) / RFU NPB (11741838_a_at) / Fold change /veh NPB (11741838_a_at) / RFU TMPRSS6 (11731388_a_at) / Fold change /veh TMPRSS6 (11731388_a_at) / RFU KRTAP10-2 (11738614_at) / Fold change /veh KRTAP10-2 (11738614_at) / RFU ARHGAP8 /// PRR5-ARHGAP8 (11727945_x_at) / Fold change /veh ARHGAP8 /// PRR5-ARHGAP8 (11727945_x_at) / RFU KRTAP5-7 /// NADSYN1 (11734609_at) / Fold change /veh KRTAP5-7 /// NADSYN1 (11734609_at) / RFU RASL12 (11751679_a_at) / Fold change /veh RASL12 (11751679_a_at) / RFU CDKN2B (11736163_a_at) / Fold change /veh CDKN2B (11736163_a_at) / RFU PRF1 (11729649_at) / Fold change /veh PRF1 (11729649_at) / RFU, ZNF638 /// ZNF638-IT1 / Fold change vs veh, ZNF638 /// ZNF638-IT1 / RFU, PANK3 / Fold change vs veh, PANK3 / RFU, SH3YL1 / Fold change vs veh, SH3YL1 / RFU, ZEB2 / Fold change vs veh, ZEB2 / RFU, NRIP1 / Fold change vs veh, NRIP1 / RFU, PTTG1IP / Fold change vs veh, PTTG1IP / RFU, CAPN2 / Fold change vs veh, CAPN2 / RFU, MED14 / Fold change vs veh, MED14 / RFU, SNORA58 / Fold change vs veh, SNORA58 / RFU, C1orf63 / Fold change vs veh, C1orf63 / RFU, LRRFIP1 / Fold change vs veh, LRRFIP1 / RFU, NDUFAF7 / Fold change vs veh, NDUFAF7 / RFU, SLC12A2 / Fold change vs veh, SLC12A2 / RFU, IBTK / Fold change vs veh, IBTK / RFU, ESF1 / Fold change vs veh, ESF1 / Fold change vs veh, TMEM50B / RFU, TAOK1 / Fold change vs veh, TAOK1 / RFU, ACBD3 / Fold change vs veh, ACBD3 / RFU, TMA16 / Fold change vs veh, TMA16 / RFU, RWDD3 / Fold change vs veh, RWDD3 / RFU, BCAT1 / Fold change vs veh, BCAT1 / RFU, EDEM3 / Fold change vs veh, EDEM3 / RFU, TMEM33 / Fold change vs veh, TMEM33 / RFU, WDR75 / Fold change vs veh, WDR75 / RFU, AHCTF1 / Fold change vs veh, AHCTF1 / RFU, TFRC / Fold change vs veh, TFRC / RFU, ZDHHC17 / Fold change vs veh, ZDHHC17 / RFU, NOM1 / Fold change vs veh, NOM1 / RFU, ARL8B / Fold change vs veh, ARL8B / RFU, ZBTB11 / Fold change vs veh, ZBTB11 / RFU, TAMM41 / Fold change vs veh, TAMM41 / RFU, KIAA1704 /// LOC100996395 / Fold change vs veh, KIAA1704 /// LOC100996395 / RFU, ING1 / Fold change vs veh, ING1 / RFU, TRMT61B / Fold change vs veh, TRMT61B / RFU, FUBP3 / Fold change vs veh, FUBP3 / RFU, TP53 / Fold change vs veh, TP53 / RFU, TNKS2 / Fold change vs veh, TNKS2 / RFU, ZFP14 / Fold change vs veh, ZFP14 / RFU, ACTR2 / Fold change vs veh, ACTR2 / RFU, PPP3R1 / Fold change vs veh, PPP3R1 / RFU, PIK3R1 / Fold change vs veh, PIK3R1 / RFU, HNRNPA1 / Fold change vs veh, HNRNPA1 / RFU, RNF170 / Fold change vs veh, RNF170 / RFU, ZNF28 / Fold change vs veh, ZNF28 / RFU, RNGTT / Fold change vs veh, RNGTT / RFU, OGT / Fold change vs veh, OGT / RFU, BRD1 / Fold change vs veh, BRD1 / RFU, MARS / Fold change vs veh, MARS / RFU, ZNF655 / Fold change vs veh, ZNF655 / RFU, FAHD1 / Fold change vs veh, FAHD1 / RFU, BDP1 / Fold change vs veh, BDP1 / RFU, LRRCC1 / Fold change vs veh, LRRCC1 / RFU, ARID1A / Fold change vs veh, ARID1A / RFU, ZNF146 / Fold change vs veh, ZNF146 / RFU, ZNF330 / Fold change vs veh, ZNF330 / RFU, GPN3 / Fold change vs veh, GPN3 / RFU, C9orf123 / Fold change vs veh, C9orf123 / RFU, N4BP2L2 / Fold change vs veh, N4BP2L2 / RFU, ARFIP1 / Fold change vs veh, ARFIP1 / RFU, FAM179B / Fold change vs veh, FAM179B / RFU, BCL10 / Fold change vs veh, BCL10 / RFU, UHRF1BP1L / Fold change vs veh, UHRF1BP1L / RFU, BET1 / Fold change vs veh, BET1 / RFU, CNOT2 / Fold change vs veh, CNOT2 / RFU, ZNF268 / Fold change vs veh, ZNF268 / Fold change vs veh, ZNF507 / RFU, DGCR2 / Fold change vs veh, DGCR2 / RFU, WDSUB1 / Fold change vs veh, WDSUB1 / Fold change vs veh, HSP90B1 /// MIR3652 / RFU, ADSS / Fold change vs veh, ADSS / RFU, GK / Fold change vs veh, GK / RFU, ZNF148 / Fold change vs veh, ZNF148 / RFU, TAF9 / Fold change vs veh, TAF9 / RFU, SLC1A5 / Fold change vs veh, SLC1A5 / RFU, SLMO2 / Fold change vs veh, SLMO2 / RFU, ABCC4 / Fold change vs veh, ABCC4 / RFU, LOC101060439 /// RAP1B / Fold change vs veh, LOC101060439 /// RAP1B / RFU, RFX7 / Fold change vs veh, RFX7 / RFU, GTPBP10 / Fold change vs veh, GTPBP10 / RFU, CNEP1R1 / Fold change vs veh, CNEP1R1 / RFU, BIVM-ERCC5 /// ERCC5 / Fold change vs veh, BIVM-ERCC5 /// ERCC5 / RFU, ILF3 / Fold change vs veh, ILF3 / RFU 11762660_at / Fold change /veh 11762660_at / RFU VCAN (11757783_s_at) / Fold change /veh VCAN (11757783_s_at) / RFU DDX43 (11728927_at) / Fold change /veh DDX43 (11728927_at) / RFU KRT8 (11758188_x_at) / Fold change /veh KRT8 (11758188_x_at) / RFU NKD1 (11759106_at) / Fold change /veh NKD1 (11759106_at) / RFU SRD5A1 (11742802_a_at) / Fold change /veh SRD5A1 (11742802_a_at) / RFU TPSAB1 /// TPSB2 (11721975_s_at) / Fold change /veh TPSAB1 /// TPSB2 (11721975_s_at) / RFU GSTM3 (11746129_a_at) / Fold change /veh GSTM3 (11746129_a_at) / RFU IL23R (11737362_x_at) / Fold change /veh IL23R (11737362_x_at) / RFU TMEM51 (11727254_a_at) / Fold change /veh TMEM51 (11727254_a_at) / RFU PIWIL2 (11732686_x_at) / Fold change /veh PIWIL2 (11732686_x_at) / RFU ORM1 (11744905_x_at) / Fold change /veh ORM1 (11744905_x_at) / RFU CCDC152 (11743942_at) / Fold change /veh CCDC152 (11743942_at) / RFU ECM1 (11717891_a_at) / Fold change /veh ECM1 (11717891_a_at) / RFU IL23R (11748794_a_at) / Fold change /veh IL23R (11748794_a_at) / RFU TNFAIP8L3 (11732012_x_at) / Fold change /veh TNFAIP8L3 (11732012_x_at) / RFU MBOAT4 (11741988_at) / Fold change /veh MBOAT4 (11741988_at) / RFU 11764193_at / Fold change /veh 11764193_at / RFU TMEM53 (11763286_at) / Fold change /veh TMEM53 (11763286_at) / RFU MAGEB2 (11727129_at) / Fold change /veh MAGEB2 (11727129_at) / RFU TMEM200A (11744735_a_at) / Fold change /veh TMEM200A (11744735_a_at) / RFU CCDC152 (11751479_a_at) / Fold change /veh CCDC152 (11751479_a_at) / RFU FAM211A (11726209_a_at) / Fold change /veh FAM211A (11726209_a_at) / RFU RGS16 (11746705_a_at) / Fold change /veh RGS16 (11746705_a_at) / RFU VCAN (11755009_s_at) / Fold change /veh VCAN (11755009_s_at) / RFU RHOB (11743442_s_at) / Fold change /veh RHOB (11743442_s_at) / RFU RGS16 (11720943_a_at) / Fold change /veh RGS16 (11720943_a_at) / RFU RGS16 (11720944_at) / Fold change /veh RGS16 (11720944_at) / RFU, VPS4B / Fold change vs veh, VPS4B / RFU, CREB1 / Fold change vs veh, CREB1 / RFU, DNAJC13 / Fold change vs veh, DNAJC13 / RFU, GNAQ / Fold change vs veh, GNAQ / RFU, CDK5R1 / Fold change vs veh, CDK5R1 / RFU, ZRANB3 / Fold change vs veh, ZRANB3 / RFU, CUL4A / Fold change vs veh, CUL4A / RFU, CCNY / Fold change vs veh, CCNY / RFU, UFL1 / Fold change vs veh, UFL1 / RFU, COG3 / Fold change vs veh, COG3 / RFU, DIAPH2 / Fold change vs veh, DIAPH2 / RFU, SKA2 / Fold change vs veh, SKA2 / RFU, AFF3 / Fold change vs veh, AFF3 / RFU, LMF1 / Fold change vs veh, LMF1 / RFU, IPO11 / Fold change vs veh, IPO11 / RFU, DFFB / Fold change vs veh, DFFB / RFU, FOXP1 / Fold change vs veh, FOXP1 / RFU, CARD8 / Fold change vs veh, CARD8 / RFU, STRN3 / Fold change vs veh, STRN3 / RFU, ADK / Fold change vs veh, ADK / RFU, RASSF2 / Fold change vs veh, RASSF2 / RFU, WIPF1 / Fold change vs veh, WIPF1 / RFU, LARP1B / Fold change vs veh, LARP1B / RFU, RASA1 / Fold change vs veh, RASA1 / RFU, RB1 / Fold change vs veh, RB1 / RFU, PPFIA1 / Fold change vs veh, PPFIA1 / RFU, MAT2A / Fold change vs veh, MAT2A / RFU, CCT5 / Fold change vs veh, CCT5 / RFU, WDR92 / Fold change vs veh, WDR92 / RFU, CUX1 / Fold change vs veh, CUX1 / RFU, TTC7A / Fold change vs veh, TTC7A / RFU, TMEM135 / Fold change vs veh, TMEM135 / RFU, DEPTOR / Fold change vs veh, DEPTOR / RFU, CPM / Fold change vs veh, CPM / RFU, DNAJB6 / Fold change vs veh, DNAJB6 / RFU, CACNA2D3 / Fold change vs veh, CACNA2D3 / RFU, DTX4 / Fold change vs veh, DTX4 / RFU, TFCP2 / Fold change vs veh, TFCP2 / RFU, GMCL1 /// GMCL1P1 / Fold change vs veh, GMCL1 /// GMCL1P1 / RFU, AEBP2 / Fold change vs veh, AEBP2 / RFU, SNHG1 /// SNORD22 /// SNORD25 /// SNORD26 /// SNORD27 /// SNORD28 /// SNORD29 /// SNORD31 / Fold change vs veh, SNHG1 /// SNORD22 /// SNORD25 /// SNORD26 /// SNORD27 /// SNORD28 /// SNORD29 /// SNORD31 / Fold change (Aza/veh), C12orf56 (ProbeSet 11735607_a_at) / Fold change (ACY-1035/veh), C12orf56 (ProbeSet 11735607_a_at) / Fold change (Aza/veh), FGFR1OP (ProbeSet 11751329_s_at) / Fold change (ACY-1035/veh), FGFR1OP (ProbeSet 11751329_s_at) / Fold change (Aza/veh), VPS36 (ProbeSet 11739960_a_at) / Fold change (ACY-1035/veh), VPS36 (ProbeSet 11739960_a_at) / RFU SYPL1 (11715823_x_at) / Fold change /veh SYPL1 (11715823_x_at) / RFU IGFBP7 (11715501_s_at) / Fold change /veh IGFBP7 (11715501_s_at) / RFU REEP3 (11722064_at) / Fold change /veh REEP3 (11722064_at) / RFU IGLL1 (11728026_x_at) / Fold change /veh IGLL1 (11728026_x_at): dose or concentration left out as unconfirmed
Details: ProbeSet 11739696_s_at; LIST D

Compound: Nc1ccc(-c2cccs2)cc1NC(=O)c1ccc2c(c1)cc(C1CC1)n2CCN1CCOCC1 [ACY-1035]
- RFU, AFF3: 669.34 RFU
